Where “and” joins values, the source holds several entries; their conditions need not be identical. Identical values can stand only once.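 Method: 48-hour compound exposure of cells in 96-well plates, five concentrations, linear interpolation of endpoints. At the GI50, growth is halved. At the TGI there is no net growth.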
How the values were obtained:
Experiment in all cases: NCI anticancer screen, dose series, 48 h
HL-60(TB) leukemia = tested on: HL-60(TB) leukemia
MCF7 breast = tested on: MCF7 breast
OVCAR-5 ovarian = tested on: OVCAR-5 ovarian
UO-31 renal = tested on: UO-31 renal
SNB-75 CNS = tested on: SNB-75 CNS
OVCAR-8 ovarian = tested on: OVCAR-8 ovarian
EKVX NSCLC = tested on: EKVX NSCLC
M14 melanoma = tested on: M14 melanoma
K-562 leukemia = tested on: K-562 leukemia
SW-620 colon = tested on: SW-620 colon

Compound | GI50 (HL-60(TB) leukemia) | TGI (HL-60(TB) leukemia) | GI50 (MCF7 breast) | TGI (MCF7 breast) | GI50 (OVCAR-5 ovarian) | TGI (OVCAR-5 ovarian) | GI50 (UO-31 renal) | TGI (UO-31 renal) | GI50 (SNB-75 CNS) | TGI (SNB-75 CNS) | GI50 (OVCAR-8 ovarian) | TGI (OVCAR-8 ovarian) | GI50 (EKVX NSCLC) | TGI (EKVX NSCLC) | GI50 (M14 melanoma) | TGI (M14 melanoma) | GI50 (K-562 leukemia) | TGI (K-562 leukemia) | GI50 (SW-620 colon) | TGI (SW-620 colon)
CCn1c(=O)c(-c2ccn[nH]2)cc2c(C)nc(N)nc21 | 2.88 µM | > 100 µM | 0.389 µM | > 100 µM | 0.539 µM | 10.6 µM | 0.291 µM | 3.72 µM | 0.182 µM | 2.49 µM | 2.51 µM | 61.7 µM | 0.691 µM | 11.1 µM | 1.23 µM | 30.6 µM | 14.7 µM | > 100 µM | 2.85 µM | > 100 µM
O=C(Nc1ccc(S(=O)(=O)Nc2nccs2)cc1)c1cccnc1Nc1cccc(Cl)c1 | 24.8 µM | 78.9 µM | 12.2 µM | 32.5 µM | 17.6 µM | 44.8 µM | 13.8 µM | 32.3 µM | 9.43 µM | 51.3 µM | 18 µM | 48.4 µM | 18.3 µM | > 100 µM | 15.7 µM | 34.9 µM | 10.4 µM | 41.1 µM | 14.2 µM | 28.7 µM
CS(=O)(=O)c1ccc(Oc2cc(F)cc(C#N)c2)c2c1[C@H](O)[C@H](F)[C@@H]2F | > 100 µM | > 100 µM | > 100 µM | > 100 µM | > 100 µM | > 100 µM | > 100 µM | > 100 µM | > 100 µM | > 100 µM | > 100 µM | > 100 µM | > 100 µM | > 100 µM | > 100 µM | > 100 µM | > 100 µM | > 100 µM | > 100 µM | > 100 µM
Cc1[nH]c(=O)[nH]c(=O)c1N(CCF)CCCl | 42.6 µM | 246 µM and 302 µM and 219 µM | 140 µM | 502 µM and > 250 µM and 851 µM | 329 µM and 400 µM | 676 µM and 976 µM and 1200 µM | 723 µM and 245 µM | 1940 µM and 1110 µM | 268 µM and 592 µM and 493 µM | 617 µM and 1420 µM and 1010 µM | 210 µM and 388 µM and 217 µM | 632 µM and 1020 µM and 1140 µM | 165 µM and 406 µM and 557 µM | 443 µM and 762 µM and 1200 µM |  | 767 µM | 403 µM and 215 µM | 757 µM and 1350 µM and 1110 µM | 321 µM and 289 µM and 147 µM | 1100 µM and 805 µM
COc1cccc(-c2nn(-c3ccccc3)cc2-c2ccnc(NCCNS(=O)(=O)c3ccc(Cl)cc3)c2)c1 | 2.56 µM | 17.9 µM | 2.98 µM | 18.4 µM | > 100 µM | > 100 µM | 2.9 µM | > 100 µM | 7.92 µM | > 100 µM | 7.54 µM | > 100 µM | 3.84 µM | > 100 µM | 4.15 µM | > 100 µM | 3.73 µM | > 100 µM | 5.44 µM | > 100 µM
CN(N=O)C(=O)Nc1c[nH]c(=O)[nH]c1=O |  | > 100 µM |  | > 100 µM |  | > 100 µM |  | > 100 µM |  | > 100 µM |  | > 100 µM |  | > 100 µM |  | > 100 µM |  | > 100 µM |  | > 100 µM
Nc1c(C(=O)Nc2ccccc2)sc2nc3c(cc12)CCCCCC3 | 0.299 µM | 4.55 µM | 0.288 µM | 11.8 µM | 0.699 µM | 16.9 µM | 0.945 µM | 11.9 µM | 0.241 µM | 0.898 µM | 0.478 µM | 16.7 µM | 0.591 µM | 25.2 µM | 0.233 µM | 3.15 µM | 0.307 µM | > 41.3 µM | 0.36 µM | 50.9 µM
CCN1C(=O)C/C(=C\C(C)=O)Nc2ccccc21 | > 100 µM | > 100 µM | > 100 µM | > 100 µM |  | > 100 µM |  | > 100 µM |  | > 67.1 µM |  | > 100 µM |  | > 100 µM |  | > 100 µM |  | > 100 µM |  | > 100 µM
CCC1=C(C)/C(=C/c2[nH]c(C)c(C(=O)CCCCC(=O)OC)c2C)N=C1c1ccc[nH]1 | 2.53 µM | 9.28 µM | 12.1 µM | 46.4 µM | 21.1 µM | > 67.2 µM | 8.78 µM | 25.5 µM | 12.2 µM | 27 µM | 7.46 µM | 42.6 µM | 12.2 µM | 32 µM | 18.7 µM | 58.8 µM | 3.47 µM | 16.7 µM | 2.18 µM | 4.82 µM
CC(C)(C)[OH+][O-].[O-]c1ccc(Cl)cc1C=Nc1ccc(Cl)cc1[O-].[O]=[V] | 24.7 µM | > 100 µM | 11.4 µM | 30 µM | 18.4 µM | 47.3 µM | 13.2 µM | 70.6 µM | 12.1 µM | 30.8 µM | 23 µM | > 100 µM | 2.84 µM | 18.1 µM | 13.3 µM | 76.2 µM | 31.5 µM | > 100 µM | 19.6 µM | 41.7 µM
CC(O)C1OC(O)C2OC(C)(C)OC12 (stereo not drawn) |  | > 100 µM |  | > 100 µM |  | > 100 µM |  | > 100 µM |  | > 100 µM |  | > 100 µM |  | > 100 µM |  | > 100 µM |  | > 100 µM |  | > 100 µM
C=C1C(=O)O[C@H]2[C@H]1CC/C(COC(=O)C(=O)c1c[nH]c3ccccc13)=C\CC[C@@]1(C)O[C@@H]21 | 1.86 µM | 4.67 µM | 2.16 µM | 8.83 µM | 2.35 µM | 6.42 µM | 1.84 µM | 3.58 µM | 2.29 µM | 11.1 µM | 3.14 µM | 12.7 µM | 8.31 µM | 20.7 µM | 2 µM | 5.19 µM | 2.28 µM | 9.5 µM | 3.09 µM | 16.6 µM
CC(C)(C)[Si](C)(C)OCC1CCC(n2cnc3c(NC(=O)c4ccccc4)ncnc32)O1 (stereo not drawn) |  | 38.2 µM |  | 45.1 µM |  | 32.3 µM |  | 3.16 µM |  | 25.6 µM |  | 60.2 µM |  | 32.6 µM |  | 30.3 µM |  | 39.5 µM |  | 35 µM
COc1cc(/C=C(/C)[N+](=O)[O-])ccc1O | 2.75 µM | 7.01 µM | 1.44 µM and 1.37 µM | 3.39 µM and 2.9 µM | 3.47 µM and 2.66 µM | 10.1 µM and 7.96 µM | 1.53 µM and 1.41 µM | 3.19 µM and 3.39 µM | 3.64 µM and 1.91 µM | 15.1 µM and 8.45 µM | 2.86 µM and 2.73 µM | 9.5 µM and 7.93 µM | 6.55 µM and 2.84 µM | 18.7 µM and 14.6 µM | 1.83 µM and 1.85 µM | 3.79 µM and 3.6 µM | 1.47 µM | > 100 µM | 1.69 µM and 1.57 µM | 3.67 µM and 3.11 µM
COC(=O)/C=C/c1cc(O)c2c(c1)C(C(=O)OC)C(c1ccc(O)c(O)c1)O2 (stereo not drawn) | 0.0845 µM and 0.0298 µM | 0.164 µM and 0.106 µM | 0.0337 µM | 82.1 µM and > 100 µM | 4.28 µM and 2.95 µM | > 100 µM | 0.855 µM and 0.301 µM | 23.6 µM and 30.7 µM |  | > 49.7 µM and 64.2 µM | 0.526 µM and 0.0809 µM | > 54.9 µM and 12 µM | 0.851 µM and 0.418 µM | 78.5 µM and > 100 µM | 0.131 µM and 0.0279 µM | > 41.3 µM | < 0.0419 µM and 0.0462 µM | > 100 µM | 0.108 µM | > 100 µM
CCC/C(=N\NC(=S)N1CCN(c2ccccn2)CC1)c1ccccn1 |  | 0.0458 µM |  | 1.41 µM | 0.113 µM | > 4.36 µM | 0.0529 µM | 3.42 µM and 1.44 µM |  | 1.84 µM and 0.325 µM |  | 0.476 µM and 1.5 µM | 0.0308 µM |  | 0.122 µM | 0.318 µM |  | 0.11 µM | 0.0117 µM | 1.36 µM and 1.21 µM
CC/C=C\C[C@H](O)C/C=C1/C(=O)C=C[C@@H]1C/C=C\CCCC(=O)NC(C)C | 2.67 µM | 9.1 µM | 2.18 µM | 13.9 µM | 4.55 µM | 16.6 µM | 1.94 µM | 4.11 µM | 8.2 µM | 21 µM | 3.04 µM | 10.7 µM | 4 µM | 15 µM | 2.87 µM | 10 µM | 2.86 µM | 38.9 µM | 3.16 µM | 10.8 µM
COc1ccc(CN2C(=O)/C(=C\c3cc(OC)c(OC)c(OC)c3)c3cc(OC)ccc32)cc1 | 3.28 µM | > 28.5 µM | 2.91 µM | 11.8 µM | 2.47 µM | 5.51 µM | 2.67 µM | 10.7 µM | 2.17 µM | 6.62 µM | 2.32 µM | > 23.9 µM | 3.83 µM | > 65.6 µM | 1.98 µM | 4.32 µM | 3.13 µM | > 35.5 µM | 1.82 µM | 3.41 µM
Cc1ccc(C)c(NC(=O)C(=O)C(c2cnc3ccc([N+](=O)[O-])cc3n2)[N+](=O)[O-])c1 (stereo not drawn) |  | 45.2 µM |  | > 100 µM |  | > 100 µM |  | > 100 µM |  | > 100 µM |  | 48.2 µM |  | > 100 µM |  | > 100 µM |  | > 100 µM |  | > 100 µM
O=C1c2ccccc2-c2c1c1ccccc1c(=O)n2CCCNCCCn1c2c(c3ccccc3c1=O)C(=O)c1ccccc1-2 | > 50 µM | > 50 µM | 1.33 µM | > 10.5 µM | 3.04 µM | 6.08 µM | 2.16 µM | > 50 µM | 6.1 µM | > 50 µM | 2.46 µM | > 26 µM | 3.98 µM | 14.8 µM | 9.15 µM | 30.4 µM | 4.07 µM |  | 0.852 µM | > 12.5 µM

— PubChem BioAssay (NCI)
